Data from patent US8637028B2, “Adjuvant incorporation in immunonanotherapeutics” (President and Fellows of Harvard College, priority 2008, dated 2014).

Legend:
[1] = Anti-nicotine IgG in immunized mice (ELISA); assay type: in vivo, mouse; conditions: FIGS. 36 and 37
[2] = test system: OT-II CD4 T cells; assay: In vivo CD4 T cell activation (CFSE-labeled OT-II cells); parameters: species or system mouse; conditions: with CpG adjuvant, three days after footpad immunization
Procedure: Subsequently, immunization experiments were performed by injecting one footpad with free OVA or with nanoparticles composed of either PLA or PLGA that encapsulated an equivalent amount of OVA as a model antigen. All antigenic mixtures also contained CpG (a TLR9 agonist) as an adjuvant. The animals were injected, sacrificed three days after immunization, and OT-II T cell activation was assessed by flow cytometry in single-cell suspensions from different tissues.
By contrast, activated T cells divide and in the process split the fluorescent dye evenly between the two daughter cells resulting in an incremental decrease in fluorescence intensity upon each successive division. Thus, the greater the left shift in CFSE, fluorescence the stronger T cells were activated.

Compound	production of nicotine antibodies [1]	local T cell proliferation in distal lymphoid tissues (brachial lymph node, spleen) [2]
CN1CCCC1c1cccnc1 (centres unmarked) [free nicotine, nicotine]	does not elicit the production of nicotine antibodies	
free OVA: free chicken ovalbumin model antigen		only undivided cells or cells with very low CFSE content
